Values joined by “and” are separate entries in the source; they are usually repeats but may differ in a detail not shown here. Equal values may be shown once.
Assays:
[1] = system: MCF-7 (breast cancer); assay: Antiproliferative assay, MCF-7; assay type: cell-based, human; conditions: for IC50: Homo sapiens, MCF7, MCF-7 breast cancer cells, read-out: Antiproliferative activity IC50 ± SEM, MCF-7
Excerpt: The dose–response experiments established the IC50 values for the new compounds. The given findings were obtained from at least two distinct studies, each comprising three repeats per concentration. Appendix A (SI File) provides experimental details.[38,39]
The MTT assay[43] was utilized to assess the antiproliferative effects of compounds 10a–l on four human cancer cell lines: HT-29 (colon cancer), Panc-1 (pancreatic cancer), A-549 (lung cancer), and MCF-7 (breast cancer). […]
4.2.2. Assay for antiproliferative effect
To explore the antiproliferative potential of compounds propidium iodide fluorescence assay was performed using different cell lines such as Panc-1 (pancreas cancer cell line), MCF-7 (breast cancer cell line), HT-29 (colon cancer cell line) and A-549 (epithelial cancer cell line), respectively. To calculate the total nuclear DNA, a fluorescent dye (propidium iodide, PI) is used which can attach to the DNA, thus offering a quick and precise technique. PI cannot pass through the cell membrane and its signal intensity can be considered as directly proportional to quantity of cellular DNA. Cells whose cell membranes are damaged or have changed permeability are counted as dead ones. The assay was performed by seeding the cells of different cell lines at a density of 3000-7500 cells/well (in 200μl medium) in culture plates followed by incubation for 24h at 37 °C in humidified 5%CO2/95% air atmospheric conditions. The medium was removed; the compounds were added to the plates at 10 μM concentrations (in 0.1% DMSO) in triplicates, followed by incubation for 48h. DMSO (0.1%) was used as control. After incubation, medium was removed followed by the addition of PI (25 μl, 50μg/mL in water/medium) to each well of the plates. At - 80 °C, the plates were allowed to freeze for 24 h, followed by thawing at 25 °C. A fluorometer (Polar-Star BMG Tech) was used to record the readings at excitation and emission wavelengths of 530 and 620 nm for each well. The percentage cytotoxicity of compounds was calculated using […]
Where ATC= Absorbance of treated cells and AC= Absorbance of control. Erlotinib was used as positive control in the assay. […]

[2] = system: caspase-3; assay: Caspase-3 activation assay in MCF-7 cells; assay type: cell-based, human; conditions: for Caspase-3 Fold change: vs untreated control
[3] = system: caspase-8; assay: Caspase-8 activation assay in MCF-7 cells; assay type: cell-based, human; conditions: for Caspase-8 Fold change: vs untreated control
Experimental: (§1) Compounds10k and 10l were tested as caspases-3, 8, 9, Bax and p53 activators and as down-regulators of the anti-apoptotic protein Bcl2 against the MCF-7 breast cancer cell line.[41] Appendix A gives more details.
To elucidate the apoptotic processes of compounds 10k and 10l, whether via the intrinsic or extrinsic pathway, their impacts on caspase-8 and caspase-9 were evaluated. […] This signifies the activation of both intrinsic and extrinsic pathways (Table 5).
4.2.6. Caspase-8/9 activation assay
Cells were obtained from American Type Culture Collection, cells were grown in RPMI 1640 containing 10% fetal bovine serum at 37°C, stimulated with the compounds to be tested for caspase 8/9, and lysed with Cell Extraction Buffer. This lysate was diluted in Standard Diluent Buffer over the range of the assay and measured for human active caspase-8/9 content. (Cells are Plated in a density of 1.2 – 1.8 × 10,000 cells/well in a volume of 100µl complete growth medium + 100 ul of the tested compound per well in a 96-well plate for 24 hours before the enzyme assay). The absorbance of each microwell was read on a spectro-photometer at 450 nm. […]

[4] = system: Bcl-2; assay: Bcl-2 level assay in MCF-7 cells; assay type: cell-based, human; conditions: for Bcl-2 Fold reduction: vs untreated control
Experimental: as §1
The Bcl-2 protein family, which includes pro-apoptotic proteins (Bax) and anti-apoptotic proteins (Bcl-2), primarily regulates apoptosis.[46] […] Consequently, we assessed the expression levels of Bcl-2 and Bax proteins in MCF-7 breast cancer cells treated with compounds 10k and 10l, Table 6. […]
4.2.8. Bcl-2 inhibition assay
Mix all the reagents thoroughly without foaming before use. Wash the microwells twice with approximately 300 μL Wash Buffer per well with thorough aspiration of microwell contents between washes. Take caution not to scratch the surface of the microwells. After the last wash, empty the wells and tap microwell strips on absorbent pad or paper towel to remove excess Wash Buffer. Use the microwell strips immediately after washing or place upside down on a wet absorbent paper for not longer than 15 minutes. […] Add 100 μL of Sample […]
Diluent in duplicate to all standard wells and to the blank wells. Prepare standard (1:2 dilution) in duplicate ranging from 32 ng/mL to 0.5 ng/mL. Add 100 μL of Sample Diluent, in duplicate, to the blank wells. Add 80 μL of Sample Diluent, in duplicate, to the sample wells. Add 20 μL of each Sample, in duplicate, to the designated wells. Add 50 μL of diluted biotin-conjugate to all wells, including the blank wells. Cover with a plate cover and incubate at room temperature, on a microplate shaker at 100 rpm if available, for 2 hours. Remove plate cover and empty the wells.
Wash microwell strips 3 times as described in step 2. Add 100 μL of diluted Streptavidin-HRP to all wells, including the blank wells. Cover with a plate cover and incubate at room temperature, on a microplate shaker at 100 rpm if available, for 1 hour. Remove the plate cover and empty the wells. Wash microwell strips 3 times as described in step 2. Proceed to the next step. Pipette 100 μl of mixed TMB Substrate Solution to all wells, including the blanks. […] The point, at which the substrate reaction is stopped, is often determined by the ELISA reader. Many ELISA readers record absorbance only up to 2.0
O.D. Therefore, the color development within individual microwells must be watched by the person running the assay and the substrate reaction stopped before positive wells are no longer properly detectable. […] Results must be read immediately after the Stop Solution is added or within one hour if the microwell strips are stored at 2 - 8°C in the dark. Read the absorbance of each microwell on a spectrophotometer using 450 nm as the primary wavelength.

[5] = molecular target: EGFR (Homo sapiens, UniProt P00533); assay: EGFR inhibitory assay (EGFR-TK test); conditions: for EGFR inhibitory potency relative to erlotinib: more potent than erlotinib
Sequence of EGFR (P00533 669-1210): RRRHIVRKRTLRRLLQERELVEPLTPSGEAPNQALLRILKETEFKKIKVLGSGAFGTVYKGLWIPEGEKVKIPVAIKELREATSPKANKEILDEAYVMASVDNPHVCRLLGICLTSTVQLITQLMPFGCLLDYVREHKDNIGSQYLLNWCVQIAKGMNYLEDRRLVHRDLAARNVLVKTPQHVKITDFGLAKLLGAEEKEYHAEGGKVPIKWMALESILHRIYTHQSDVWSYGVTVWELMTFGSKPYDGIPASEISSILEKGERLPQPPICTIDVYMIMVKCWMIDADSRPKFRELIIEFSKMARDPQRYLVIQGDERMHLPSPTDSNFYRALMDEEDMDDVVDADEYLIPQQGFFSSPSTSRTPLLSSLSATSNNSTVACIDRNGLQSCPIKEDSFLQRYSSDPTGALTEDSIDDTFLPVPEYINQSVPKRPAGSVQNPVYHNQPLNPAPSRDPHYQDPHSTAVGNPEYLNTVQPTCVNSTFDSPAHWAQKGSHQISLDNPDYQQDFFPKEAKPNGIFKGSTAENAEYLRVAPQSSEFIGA
Experimental: Baculoviral expression vectors including pBlueBacHis2B and pFASTBacHTc were used
5ʹ upstream to the EGFR sequence comprised a sequence that encoded (His)6. Sf-9 cells were infected for 72h for protein expression. The pellets of Sf-9 cells were solubilized in a buffer containing sodium vanadate (100 μM), aprotinin (10 μg/mL), triton (1%), HEPES
buffer(50mM), ammonium molybdate (10 μM), benzamidine HCl (16 μg/mL), NaCl (10 mM),leupeptin (10 μg/mL) and pepstatin (10 μg/mL) at 0°C for 20 min at pH 7.4, followed by centrifugation for 20 min. To eliminate the nonspecifically bound material, a Ni-NTA super flow packed column was used to pass through and wash the crude extract supernatant first with 10mM and then with 100 mM imidazole. Histidine-linked proteins were first eluted with 250 and then with 500 mM imidazole subsequent to dialysis against NaCl (50 mM), HEPES (20 mM), glycerol (10%) and 1 μg/mL each of aprotinin, leupeptin and pepstatin for 120 min. The purification was performed either at 4 °C or on ice. To record autophosphorylation level, EGFR kinase assay was carried out on the basis of DELFIA/Time-Resolved Fluorometry. The compounds were first
dissolved in DMSO absolute, subsequent to dilution to appropriate concentration using HEPES
(25 mM) at pH 7.4. Each compound (10 μL) was incubated with recombinant enzyme (10 μL, 5
ng for EGFR, 1:80 dilution in 100 mM HEPES) for 10 min at 25 °C, subsequent to the addition of
5X buffer (10 μL, containing 2 mM MnCl2, 100 μM Na3VO4, 20 mM HEPES and 1 mM DTT)
and ATP-MgCl2 (20 μL, containing 0.1 mM ATP and 50 mM MgCl2) and incubation for 1h. The
negative and positive controls were included in each plate by the incubation of enzyme either with
or without ATP-MgCl2. The liquid was removed after incubation and the plates were washed
thrice using a wash buffer. The Europium-tagged antiphosphotyrosine antibody (75 μL, 400 ng)
was added to each well followed by incubation of 1h and then washing of the plates using buffer.
The enhancement solution was added to each well and the signal was recorded at excitation and
The autophosphorylation percentage inhibition by compounds was calculated using the following equation:
calculated. The majority of signals detected by antiphosphotyrosine antibody were from EGFR because the enzyme preparation contained low impurities.

SMILES | IC50 [1] | Caspase-3 Conc [2] | Caspase-3 Fold change [2] | Caspase-8 Conc [3] | Caspase-8 Fold change [3] | Bcl-2 [4] | Bcl-2 Fold reduction [4] | IC50 [5] | EGFR inhibitory potency relative to erlotinib [5] | Potency relative to erlotinib, MCF-7 ([1]; more potent than erlotinib)
COc1ccc(-c2noc(CSc3nc(-c4ccc(OC)cc4)c(C#N)c(=O)[nH]3)n2)cc1 [Compound 10l, 2-(((3-(4-Methoxyphenyl)-1,2,4-oxadiazol-5-yl)methyl)thio)-4-(4-methoxyphenyl)-6-oxo-1,6-dihydropyrimidine-5-carbonitrile] | 22 ± 1 nM | 530 ± 4 pg/mL | 8 fold and 8.00 fold | 2.00 ± 0.10 ng/mL | 20 fold and 20.00 fold | 1.50 ± 0.001 ng/mL | 3 fold | 61 ± 4 nM | 1.3 fold | –
COc1ccc(-c2nc(SCc3nc(-c4ccc(Cl)cc4)no3)[nH]c(=O)c2C#N)cc1 [Compound 10k, 2-(((3-(4-Chlorophenyl)-1,2,4-oxadiazol-5-yl)methyl)thio)-4-(4-methoxyphenyl)-6-oxo-1,6-dihydropyrimidine-5-carbonitrile] | 20 ± 1 nM | 590 ± 5 pg/mL | 9 fold and 9.00 fold | 2.50 ± 0.20 ng/mL | 25 fold and 25.00 fold | 1.20 ± 0.001 ng/mL | 4 fold | 57 ± 3 nM | 1.4 fold | twice as potent
